Consider seven compounds from PMC8124228, “New Hybrids Based on Curcumin and Resveratrol: Synthesis, Cytotoxicity and Antiproliferative Activity against Colorectal Cancer Cells” (Molecules, 2021).

SMILES strings stand for the structures. Like-named read-outs stand apart in the source and are kept apart here.

In series [1] the test system is SW620 cells (metastatic derivative of SW480). The series can be described thus: Sulforhodamine B (SRB) cytotoxicity assay, SW620. Format: cell-based, human. Particulars: for SI (selectivity index): IC50 CHO-K1 / IC50 SW620; for IC50: Homo sapiens, SW-620, SRB, mean ± SE. On the procedure:
(§1) To determine the cytotoxic effect of the synthesized hybrids, they were evaluated against SW480 human colon adenocarcinoma cells, its metastatic derivative SW620 and the non-malignant CHO-K1 cell line, through the sulforhodamine B assay. In this experiment, 5-FU was also included as the reference drug, as well as the parental subunits (curcumin and resveratrol) and the equimolar mixture of these. Cytotoxicity was reported as 50% inhibitory concentration (IC50 values).
(§2) Biological assays were performed using an adenocarcinoma colon cancer cell line (SW480), its metastatic derivative (SW620) and non-malignant cells (CHO-K1). These were obtained from The European Collection of Authenticated Cell Cultures (ECACC, England) and maintained in Dulbecco’s Modified Eagle Medium, supplemented with 10% heat-inactivated (56 °C) horse serum, 1% penicillin/streptomycin and 1% non-essential amino acids (Gibco Invitrogen, Carlsbad, USA). For all experiments, horse serum was reduced to 3%, and the medium was supplemented with […], 5 ng/mL selenium and […] (ITS-defined medium; Gibco, Invitrogen, Carlsbad, CA, USA).
(§3) Cytotoxicity of the synthesized hybrids, lead and reference compounds was evaluated through Sulforhodamine B (SRB) assay, a colorimetric test that is based on staining of total cellular protein of adherent cells. Cells were seeded to a final density of 20,000 cells/well in 96-well tissue culture plates and incubated at 37 °C in a humidified atmosphere at 5% CO2. All cultures were allowed to grow for 24 h, and afterward they were treated with DMSO (vehicle control 1%) or increasing concentrations (0.01–200 µM) of the synthesized hybrids, as well as curcumin and resveratrol (lead compounds), the equimolar mixture of these and 5-fluorouracil (5-FU; the standard drug). After treatment, cells were fixed with trichloroacetic acid (50% v/v) (MERCK) for a period of 1 h at 4 °C. Cell proteins were determined by staining with 0.4% (w/v) SRB (Sigma-Aldrich, United States), and then they were washed with 1% acetic acid for the removal of unbound SRB and left for air-drying. Protein bound SRB was solubilized in 10 mM Tris-base and the absorbance was measured at 492 nm in a microplate reader (Mindray MR-96A). All experiments were performed at least in triplicate.
(Sulforhodamine B stains cellular protein and so reports cell mass.)

In series [2] the test system is SW480 human colon adenocarcinoma cells. The experiment in a line: Sulforhodamine B (SRB) cytotoxicity assay, SW480. The following applies: for SI (selectivity index): IC50 CHO-K1 / IC50 SW480; for IC50: SRB, mean ± SE. In kind it is cell-based. On the procedure: as §1, §2, §3
In series [3] the test system is SW480 cell line. The experiment in a line: Antiproliferative activity (SRB, 2-8 days), SW480. Format: cell-based. Particulars: Homo sapiens, vehicle control = 100%, read-out: Viability (%) ± SE; for viability at 10 µM: SW480, 10 µM; for viability at 160 µM: SW480, 160 µM. On the procedure:
(§4) With the aim of testing the antiproliferative effect of the most cytotoxic and selective hybrids (3e and 3i for SW480 and 3a, 3e and 3k for SW620), they were analyzed through a longer period. According to the results in comparison with the control, it was observed that the activity was time- and concentration-dependent, as evidenced by the decrease in cell viability in the highest concentrations (Table 2). […] Similar results were presented in a previous investigation by Herrera-R et al. (2018), reporting the antiproliferative effect and morphological changes in SW480 cells after treatment with different hybrids using a stilbene moiety, which highlights the potential of this scaffold in the approach to design molecules with potential activity against CRC.
(§5) Briefly, cells were seeded to a final density of 2500 cells/well in 96-well tissue culture plates and incubated in the same conditions described for cytotoxicity. […] Culture media was replaced every 48 h. After each incubation time, cells were fixed, stained and read as previously described for this technique.

For series [4], the system named is non-malignant CHO-K1 cell line. The series can be described thus: Sulforhodamine B (SRB) cytotoxicity assay, non-malignant cells. In kind it is cell-based. The following applies: Cricetulus griseus, mean ± SE. On the procedure:
as §1, §2, §3

The subject of series [5] is SW620 cell line. The series can be described thus: Antiproliferative activity (SRB, 2-8 days), SW620. In kind it is cell-based, human. Particulars: for viability at 10 µM / viability at 160 µM: Homo sapiens, vehicle control = 100%, read-out: Viability (%) ± SE; for viability at 10 µM: SW620, 10 µM; for viability at 160 µM: SW620, 160 µM; for reduction in viability: SW620, after two days of treatment, concentrations higher than 10 µM. Here is the method:
as §4, §5

The subject of series [6] is MDA-MB-231/ATCC, PC-3, SNB-75, RPMI-8226, MOLT-4, CCRF-CEM and HS 578T cell lines. Also on record: method as in doi:10.1007/s00044-014-1146-2. The following applies: mean over cell lines; cited from earlier work.
For series [7], the system named is LNCaP (human androgen-dependent prostate cancer) cell line. Also on record: method as in PMID 26341135. Particulars: cited from earlier work.
Series [8] concerns A549 human lung cancer cells. Also on record: method as in PMID 26174555. Particulars: cited from earlier work.
The test system of series [9] is SKOV-3 ovarian carcinoma cells. More on the design: method as in PMID 26174555. Particulars: cited from earlier work.
Series [10] has as its system MCF-7 human breast cancer cell line. More on the design: method as in PMID 26174555. Particulars: cited from earlier work.
Series [11] deals with H-460 human lung cancer cells. Also on record: method as in PMID 26174555. The following applies: cited from earlier work.
Setting [12] is: Homo sapiens, SW480, 24 h, 24 h.
[13] abbreviates: Homo sapiens, SW480, 48 h, 48 h.

On to `COc1ccc(/C=C/c2ccc(C(=O)/C=C/c3ccc(O)c(OC)c3)cc2)c(OC)c1` [Hybrid 3e, (E)-1-(4-((E)-2,4-Dimethoxystyryl)phenyl)-3-(4-hydroxy-3-methoxyphenyl)prop-2-en-1-one], for which the melting point lay within 78 to 82 °C. In addition, in series [1] (24 h), the “SI (selectivity index)” value worked out at 1.81 and the IC50 was 55.5 ± 8 µM. In [1] (48 h), this compound came in with an IC50 of 20.4 ± 3.51 µM. In series [2] (24 h), the “SI (selectivity index)” value was 1.85. The same compound gave an IC50 in [2] (setting [12]) of 54.4 ± 6.93 µM. For the same compound, in series [3] (48 h, day 2), the viability at 10 µM is 53.9 ± 5.3% and the viability at 160 µM worked out at 32.9 ± 1.3%. Also, in [3] (96 h, day 4), the viability at 10 µM turned out to be 2.3 ± 0.3% and the viability at 160 µM came out at 0.9 ± 0.2%. Besides, in [3] (144 h, day 6), the viability at 10 µM worked out at 3.8 ± 2.7% and the viability at 160 µM was determined as 0.5 ± 0.2%. For the same compound, in [3] (192 h, day 8), the viability at 10 µM was 5.2 ± 0.3% and the viability at 160 µM was 0.1 ± 0.1%. The compound also showed an IC50 in series [4] (24 h) of 100.6 ± 1 µM. In series [4] (48 h), this compound had an IC50 of 43.3 ± 6.84 µM. In series [5] (SW-620, 48 h, day 2), the viability at 10 µM was found to be 80.6 ± 4% and the viability at 160 µM amounted to 5 ± 1%. In [5] (SW-620, 96 h, day 4), the viability at 10 µM amounted to 11.1 ± 4.2% and the viability at 160 µM was 4.1%. For the same compound, in series [5] (SW-620, 144 h, day 6), the viability at 10 µM worked out at 4.1 ± 2.2% and the viability at 160 µM was determined as 0%. Also, in [5] (SW-620, 192 h, day 8), the viability at 10 µM came to 0.6 ± 0.5% and the viability at 160 µM came to 0%. Also, the reduction in viability entry in [5] is given as “significant reduction in viability”.

`COc1cc(/C=C/C(=O)c2ccc(/C=C/c3cc(OC)c(OC)c(OC)c3)cc2)ccc1O` [Hybrid 3k, (E)-3-(4-Hydroxy-3-methoxyphenyl)-1-(4-((E)-3,4,5-trimethoxystyryl)phenyl)prop-2-en-1-one] registered a melting point of 74 to 77 °C. Further, in series [1] (24 h), the “SI (selectivity index)” value stood at 3.65 and it took 20.4 ± 2.43 µM to reach half-maximal inhibition (IC50). Moreover, in [1] (48 h), the IC50 amounted to 11.8 ± 1.2 µM. The “SI (selectivity index)” value in series [2] (24 h) is 0.84. Also, in [2] (48 h), the “SI (selectivity index)” value is on record as 0.34. For the same compound, in series [2] (setting [12]), the IC50 came to 88.5 ± 4.58 µM. This compound returned an IC50 in series [2] (setting [13]) of 85.8 ± 1.27 µM. Further, in [4] (24 h), the IC50 was 74.6 ± 4.2 µM. The compound also came in with an IC50 in [4] (48 h) of 29.4 ± 2.29 µM. In [5] (SW-620, 48 h, day 2), the viability at 10 µM was 56.1 ± 4% and the viability at 160 µM amounted to 2.4 ± 0.7%. For the same compound, in [5] (SW-620, 96 h, day 4), the viability at 10 µM amounted to 12.1% and the viability at 160 µM turned out to be 0%. Further, in series [5] (SW-620, 144 h, day 6), the viability at 10 µM was found to be 1.9 ± 0.8% and the viability at 160 µM came out at 0%. Further, in series [5] (SW-620, 192 h, day 8), the viability at 10 µM turned out to be 0.1 ± 0.1% and the viability at 160 µM was determined as 0%. Besides, the reduction in viability entry in series [5] is “significant reduction in viability”.

Compound `COc1cc(/C=C/C(=O)c2ccc(/C=C/c3ccc(O)cc3)cc2)ccc1O` [Hybrid 3a, (E)-3-(4-Hydroxy-3-methoxyphenyl)-1-(4-((E)-4-hydroxystyryl)phenyl)prop-2-en-1-one] showed a melting point of 119 to 120 °C. In series [1] (24 h), the “SI (selectivity index)” value was 0.74 and the IC50 was found to be 166 ± 11.8 µM. This compound also yielded an IC50 in series [1] (48 h) of 20.2 ± 1.21 µM. Moreover, the “SI (selectivity index)” value in [2] (24 h) is listed as 1.28. Also, in series [2] (48 h), the “SI (selectivity index)” value is 0.54. Moreover, in [2] (setting [12]), half-maximal inhibition (IC50) required 96 ± 2.76 µM. Moreover, the IC50 in [2] (setting [13]) was determined as 95.1 ± 7.02 µM. This compound yielded an IC50 in series [4] (24 h) of 122 ± 15.5 µM. In addition, the IC50 in [4] (48 h) came out at 51.6 ± 10.5 µM. Moreover, in series [5] (SW-620, 48 h, day 2), the viability at 10 µM was 71.9 ± 1.9% and the viability at 160 µM came out at 16.1%. Besides, in series [5] (SW-620, 96 h, day 4), the viability at 10 µM was determined as 10.7 ± 4.7% and the viability at 160 µM was 0%. For the same compound, in series [5] (SW-620, 144 h, day 6), the viability at 10 µM came to 2.5 ± 0.5% and the viability at 160 µM was found to be 0%. Besides, in series [5] (SW-620, 192 h, day 8), the viability at 10 µM turned out to be 0.2 ± 0.3% and the viability at 160 µM was 0%.

Regarding `COc1ccc(C2NC(=O)NC(/C=C/c3ccc(O)c(OC)c3)=C2C(=O)/C=C/c2ccc(O)c(OC)c2)cc1` (stereo not drawn) [Curcumin–monastrol hybrid], the “mean growth percentage (GP)” value in series [6] is 88.90.

For `CCn1ccnc1/C=C/C(=O)/C=C/c1coc2ccccc2c1=O` [Hybrid curcum–imidazol], in series [7], the IC50 is 1 µM.

Regarding `COc1cc(/C=C/C(=O)c2ccc(/C=C/c3ccc(OC)c(OC)c3)cc2)ccc1O` [Hybrid 3i, (E)-1-(4-((E)-3,4-dimethoxystyryl)phenyl)-3-(4-hydroxy-3-methoxyphenyl)prop-2-en-1-one], the melting point lay within 67 to 70 °C. In [1] (24 h), the “SI (selectivity index)” value is 1.32 and inhibition was half-maximal at 78.9 ± 6.2 µM (IC50). In series [1] (48 h), the “SI (selectivity index)” value is 0.96 and the IC50 was found to be 29.3 ± 4.73 µM. Moreover, the “SI (selectivity index)” value in series [2] (24 h) came to 2.09. Further, the midpoint of inhibition in series [2] (48 h), the IC50, lay at 11.5 ± 2.78 µM. In addition, in [2] (setting [12]), the IC50 amounted to 49.7 ± 4.56 µM. In series [2] (setting [13]), the IC50 was 11.5 to 29.2 µM. Besides, in [3] (48 h, day 2), the viability at 10 µM worked out at 54.4 ± 7.4% and the viability at 160 µM stood at 30.3 ± 8.5%. Also, in series [3] (96 h, day 4), the viability at 10 µM was determined as 2 ± 0.2% and the viability at 160 µM stood at 1.7 ± 0.1%. Also, in series [3] (144 h, day 6), the viability at 10 µM came to 1.6 ± 0.2% and the viability at 160 µM is 0.1 ± 0.1%. In series [3] (192 h, day 8), the viability at 10 µM is 1.6 ± 0.3% and the viability at 160 µM is 0.2 ± 0.1%. In [4] (24 h), this compound yielded an IC50 of 104 ± 5.03 µM. The compound also returned an IC50 in [4] (48 h) of 28.3 ± 9.3 µM.

For `C#CCn1c(=O)c(/C=C/C(=O)CC(=O)/C=C/c2ccc(O)c(OC)c2)cc2cc(C)ccc21` [curcumin–quinolone hybrid], the IC50 in series [8] was 23.9 µM; in series [9], 12.8 µM; in series [10], 36.2 µM; in [11], 21.8 µM.

As usually defined, the IC50 is the concentration that gives 50% inhibition. For orientation: viability means a read-out of living cells in per cent, often relative to untreated cells. What is called melting point is the temperature, or range, at which the solid turns liquid.
